The record followed here is PMC5790502, “The anti-rheumatic drug, leflunomide, synergizes with MEK inhibition to suppress melanoma growth” (Oncotarget, 2017).

The IC50 is the midpoint of a concentration-inhibition curve.

Each structure is given as a SMILES string.

In assay [1] the test system is A375 melanoma cells. The experiment in a line: Cell cycle analysis (PI staining, flow cytometry). The class given is cell-based, human. The note with it: 72 hours. As to the method: Cell cycle analysis was carried out as previously detailed. In brief, A375 melanoma cells were seeded in 24-well plates at a density of 4,600 cells per well. After 24 hours, the cells were treated with vehicle, 25, 50 and 100 µM of Leflunomide. After 72 hours, the cells were trypsinised and pelleted along with the culture medium. Cells were washed in PBS and fixed in ice-cold absolute ethanol. Cells were then stained with 200 µl PI/RNase A solution (Cell Signalling Technology). Cells were analyzed using a BD Accuri™ C6 flow cytometer (BD Biosciences) and the data was analyzed using the BD Accuri™ C6 Software and FlowJo (FLOWJO, LLC).
Background: In flow cytometry, cells or beads pass a laser one at a time.

In assay [2] the test system is A375 melanoma cells. The experiment in a line: Mitochondrial membrane potential assay (JC-1). The settings on record: rising concentrations of leflunomide (25, 50, 100 μM), 72 hours. Format: cell-based, human. As to the method: (§1) www.impactjournals.com/oncotarget/ Oncotarget, Supplementary Materials 2017 The anti-rheumatic drug, leflunomide, synergizes with MEK inhibition to suppress melanoma growth
(§2) Mitochondrial membrane potential [ΔΨM] assay REFERENCES
(§3) A375 melanoma cells were seeded in 12 well plates at 1. Tap WD, Gong KW, Dering J, Tseng Y, Ginther C, Pauletti a density of 10,000 cells per 1 ml of medium per well. After G, Glaspy JA, Essner R, Bollag G, Hirth P, Zhang C, Slamon 24 hours, the cells were treated with vehicle or leflunomide. DJ. […] Haluska FG, Tsao H, Wu H, Haluska FS, Lazar A, Goel V. of fresh PBS before being analyzed on the BD AccuriTM C6 Genetic alterations in signaling pathways in melanoma. […] Samples were exposed to 488 nm excitation, Cancer Res. 2006; 12:2301s–2307s. with JC-1 green monomer fluorescence detected at 533/30 3. von Euw E, Atefi M, Attar N, Chu C, Zachariah S, Burgess BL, nm in the FL1 channel and JC-1 red aggregates fluorescence Mok S, Ng C, Wong DJ, Chmielowski B, Lichter DI, Koya RC, detected at 585/20 nm in the FL2 channel. […] Data selective MEK inhibitor TAK733 against cutaneous and uveal was analyzed using the BD AccuriTM C6 Software. melanoma cell lines. […]
(§4) BD AccuriTM C6 flow cytometer (with green fluorescence 6. Atefi M, Titz B, Tsoi J, Avramis E, Le A, Ng C, Lomova A, Lassen detected in the FL1 channel). […]

Assay [3] has as its system A375 melanoma cells. The experiment in a line: Annexin V apoptosis assay. Format: cell-based, human. The note with it: 72 hours. As to the method: Apoptosis was assessed using an Annexin V-FITC Apoptosis detection kit FITC (eBioscience), according to the manufacturer’s instructions. Briefly, cells were seeded in 24-well plates at a density of 4,600 cells per well. After 24 hours, the cells were treated with vehicle or leflunomide (at concentrations of 25, 50 and 100 µM). After 72 hours cells were trypsinised, washed in PBS and treated with fluorochrome-conjugated Annexin V and propidium iodide as indicated in the protocol. Cells were analyzed on the BD Accuri™ C6 flow cytometer and the data analyzed using the instrument software.

Assay [4] has as its system A375 melanoma cells. The experiment in a line: Mitotracker green staining (mitochondrial mass). Format: cell-based, human. As to the method: as §1, §2, §3, §4
The next assay concerns SKmel5 melanoma cells. The experiment in a line: Cell viability assay (CellTiter-Glo). The settings on record: Homo sapiens, SK-MEL-5, 72 hours treatment. Format: cell-based. As for the experimental part: Cells that had been seeded 24 hours earlier on poly-L-lysine coated 96-well plates (Sigma-Aldrich) to subconfluency, were treated with drugs at the indicated concentrations for 72 hours. Cytochalasin D (Sigma Aldrich) was used as a positive control. All conditions were repeated in triplicate. Cell viability was determined on day 5 using the CellTiter-Glo Luminescence assay (Promega), according to the manufacturer’s instructions. Luminescence from the plate was read on a BMG LabTech Omega Series plate reader (data analyzed using OMEGA software). Cell viability was calculated as a percentage of the mean vehicle control.
For pharmacological analysis, IC50 values were generated using Prism Graphpad software (Graphpad Software, Inc.) and calculated using a nonlinear regression model. Combinatorial drug synergy was assessed by determination of combination index (CI), which was calculated using CalcuSyn (Biosoft) software using the median effects methods as described by Chou and Talalay, CI values less than 0.7 indicated synergy, 0.7–0.9 weak synergy, 0.9–1.1 additivity, 1.1–1.45 indicated weak antagonism and greater than 1.45 antagonism.
Background: Cellular ATP, detected with luciferase, serves as a proxy for viable cell number.

Regarding `Cc1oncc1C(=O)Nc1ccc(C(F)(F)F)cc1` [Leflunomide, leflunomide], in the assay with A375 melanoma cells [1] (25 μM leflunomide), the “cells in G1 (G0-G1 phase)” value was found to be 46.56%, the “cells in sub-G1” value is recorded as 5.36% and the “reduction of percentage of cells in G2-M compared to the DMSO control” value turned out to be 50%. In the assay on A375 melanoma cells [1] (50 μM leflunomide), the “cells in G1 (G0-G1 phase)” value is listed as 55.05%, the “cells in S-phase” value is 30.41% and the “cells in sub-G1” value amounted to 9.12%. Also, in the assay on A375 melanoma cells [1] (100 μM leflunomide), the “cells in G1 (G0-G1 phase)” value came out at 73.56%, the “cells in S-phase” value is 11.60% and the “cells in sub-G1” value amounted to 11.84%. The “mitochondrial membrane potential (JC-1, FL-1 channel)” value with A375 melanoma cells [2] is on record as “depolarized”. In the assay on A375 melanoma cells [3] (50 μM leflunomide), the “early apoptotic cells (quadrant Q3)” value stood at 49.3% and the “late apoptotic/necrotic cells (quadrant Q2)” value was 44.2%. Further, in the assay on A375 melanoma cells [3] (100 μM leflunomide), the “early apoptotic cells (quadrant Q3)” value was found to be 28.5% and the “late apoptotic/necrotic cells (quadrant Q2)” value is 19.1%. Moreover, the viability at 25 µM in the assay with A375 melanoma cells [3] (Homo sapiens, A-375, 25μM leflunomide, read-out: viable cells (quadrant Q4)) is 68%. Moreover, the viability at 50 µM in the assay on A375 melanoma cells [3] (Homo sapiens, A-375, 50μM leflunomide, read-out: viable cells (quadrant Q4)) was found to be 5.91%. Further, the viability at 100 µM with A375 melanoma cells [3] (Homo sapiens, A-375, 100μM leflunomide, read-out: viable cells (quadrant Q4)) came to 51.4%. The “increase in the time to reach 5000 events by flow cytometry (sample cell density)” value with A375 melanoma cells [4] (100 μM leflunomide relative to the 25 μM and 50 μM treated samples) is on record as 3 fold. Further, the “increase in the amount of green fluorescence (Mitotracker green) compared to the DMSO control” value with A375 melanoma cells [4] (100 μM leflunomide, 72 hours) stood at 3 fold. In the assay with SKmel5 melanoma cells, the IC50 was 122 µM.
